Experimental data from US8901171B2, “Compounds for suppressing a peripheral nerve disorder induced by an anti-cancer agent” (Takeda Pharmaceutical Company Limited, priority 2010, dated 2014).

Key:
Assay type in all cases: in vivo
[1] = test system: Mice (C57BL/6N, male, 8-week-old), peripheral nerve disorders induced by various anti-cancer agents; assay: Experimental Example 4: pain threshold of mice given various anti-cancer agents, compound 9′, balance type pressing device (Ugo Basile)
Description: Group D was intravenously administered with compound 9′ (1 mg/kg body weight) of Reference Example B dissolved in solution of N methyl-D(−)-glucamine (0.01 mol/L) immediately before intraperitoneal administration of various anti-cancer agents. Pain threshold of each group was measured 3 week after the administration for paclitaxel and 1 week after the administration for the anti-cancer agents other than paclitaxel. Pain threshold is a weighed value (gram) at the time when a false escape response is observed by pressurizing the plantar part of the right hindlimb using a balance type pressing device (Ugo Basile). The values in the Table show mean±standard error of the weighed values, and n is the number of the mice in each group.

[2] = test system: Mice (C57BL/6N, male, 8-week-old), peripheral nerve disorders induced by various anti-cancer agents; assay: Experimental Example 2: pain threshold of mice given various anti-cancer agents, balance type pressing device (Ugo Basile); details: 1 week after
Description: Mice (C57BL/6N, male, 8-week-old) were divided into Group A, Group B, and Group C. As Group A, non-treated animals were used. […] Group C was intravenously administered with compound 72 (3 mg/kg body weight) of Reference Example A dissolved in an emulsion containing soybean oil, egg-yolk lecithin, glycerol and the like immediately before intraperitoneal administration of various anti-cancer agents. Thus, neither an enumerated anti- cancer agent nor Compound 72 was administered to Group A; an anti-cancer agent but not Compound 72 was administered to Groups B; and both an anti-cancer agent and Compound 72 were administered to Groups C. Pain threshold of each group was measured 1 week after the administration of the anti-cancer agent. Pain threshold is a weighed value (gram) at the time when a false escape response is observed by pressurizing the plantar part of the right hindlimb using a balance type pressing device (Ugo Basile). The values in the Table show mean ±standard error of the weighed values, and n is the number of the mice in each group.

[3] = test system: Rat (Wistar, male, 5-week-old), peripheral nerve disorders induced by paclitaxel; assay: Experimental Example 3: pain threshold of paclitaxel-treated rats, Electronic von Frey
Description: Rat (Wistar, male, 5-week-old) were divided into Group A, Group B, and Group C. As Group A, non-treated animals were used. To Group B and Group C, paclitaxel is diluted with saline to a given concentration, and intraperitoneally administered at 6 mg/kg body weight for a total of 3 times at intervals of 1 to 2 days. Group C was intravenously administered with compound 72 (10 mg/kg body weight) of Reference Example A dissolved in an emulsion containing soybean oil, egg-yolk lecithin, glycerol and the like immediately before intraperitoneal administration of paclitaxel (total 3 times). Thus, neither paclitaxel nor Compound 72 was administered to Group A; paclitaxel but not Compound 72 was administered to Group B; and both paclitaxel and Compound 72 were administered to Group C. Pain threshold of each group was measured 2 weeks after first paclitaxel administration. Pain threshold is a weighed value (gram) at the time when an avoidance response is observed by pressurizing the plantar part of the right hindlimb using an Electronic von Frey (IITC Life Science). The values in the Table show mean ±standard error of the weighed values, and n is the number of the rats in each group.

[4] = test system: Mice (C57BL/6N, male, 7-week-old), peripheral nerve disorders induced by paclitaxel; assay: Experimental Example 1: pain threshold of paclitaxel-treated mice, balance type pressing device (Ugo Basile); details: mean ± standard error
Description: Mice (C57BL/6N, male, 7-week-old) were divided into Group A (6 mice), Group B (6 mice), and Group C (6 mice). Group B and Group C were intraperitoneally administered with paclitaxel (dissolved in ethanol:Cremophor EL:saline=0.5:0.5:9; 4 mg/kg body weight). As Group A, non-treated animals were used. Group C was intravenously administered with compound 72 (10 mg/kg body weight) of Reference Example A dissolved in an emulsion containing soybean oil, egg-yolk lecithin, glycerol and the like immediately before and 1 and 2 weeks after intraperitoneal administration of paclitaxel (total 3 times). Thus, neither paclitaxel nor Compound 72 was administered to Group A; paclitaxel but not Compound 72 was administered to Group B; and both paclitaxel and Compound 72 were administered to Group C. Pain threshold of each group was measured 3 weeks after paclitaxel administration to Group B and Group C. Pain threshold is a weighed value (gram) at the time when a false escape response is observed by pressurizing the plantar part of the right hindlimb using a balance type pressing device (Ugo Basile). The values in the Table show mean ±standard error of the weighed values.

With N.N.O=C([O-])C1(C(=O)[O-])CCC1.[Pt+2] [Carboplatin, carboplatin, reference compound] the “Pain threshold” value ([1]; Group B: anti-cancer agent alone i.p. (docetaxel 3, vincristine 0.1, cisplatin 3, carboplatin 40, bortezomib 0.4 mg/kg), 1 week after) was 110.0 ± 6.8 g and the “Pain threshold” value ([2]; Group B: anti-cancer agent alone i.p. (docetaxel 3, vincristine 0.1, cisplatin 3, carboplatin 40, bortezomib 0.4 mg/kg), non-treated Group A 365.0 ± 17.8) was 110.0 ± 6.8 g.
With CCOC(=O)C1=CCOC[C@H]1S(=O)(=O)Nc1ccc(F)cc1Cl [compound 9′, ethyl (3S)-3-[N-(2-chloro-4-fluorophenyl)sulfamoyl]-3,6-dihydro-2H-pyran-4-carboxylate] the “Pain threshold” value ([1]; Group D: bortezomib 0.4 mg/kg i.p. + compound 9′ 1 mg/kg i.v. immediately before, 1 week after) was 256.7 ± 26.5 g, the “Pain threshold” value ([1]; Group D: carboplatin 40 mg/kg i.p. + compound 9′ 1 mg/kg i.v. immediately before, 1 week after) was 176.7 ± 16.7 g and the “Pain threshold” value ([1]; Group D: cisplatin 3 mg/kg i.p. + compound 9′ 1 mg/kg i.v. immediately before, 1 week after) was 193.3 ± 26.2 g. For the same compound, the “Pain threshold” value ([1]; Group D: docetaxel 3 mg/kg i.p. + compound 9′ 1 mg/kg i.v. immediately before, 1 week after) was 276.7 ± 38.1 g, the “Pain threshold” value ([1]; Group D: paclitaxel 10 mg/kg i.p. + compound 9′ 1 mg/kg i.v. immediately before, 3 week after, mean ± standard error) was 406.7 ± 61.2 g and the “Pain threshold” value ([1]; Group D: vincristine 0.1 mg/kg i.p. + compound 9′ 1 mg/kg i.v. immediately before, 1 week after) was 306.7 ± 73.5 g.
In the case of CCOC(=O)C1=CCCC[C@H]1S(=O)(=O)Nc1ccc(F)cc1Cl [compound 72, ethyl (6R)-6-[N-(2-chloro-4-fluorophenyl)sulfamoyl]-1-cyclohexene-1-carboxylate], the “Pain threshold” value ([3]; Group C: paclitaxel 6 mg/kg i.p. 3 times + compound 72 10 mg/kg i.v. immediately before each, 2 weeks after first paclitaxel, mean ± standard error) is reported as 24.9 ± 0.9 g, the “Pain threshold” value ([2]; Group C: bortezomib 0.4 mg/kg i.p. + compound 72 3 mg/kg i.v. immediately before, mean ± standard error) is reported as 306.7 ± 24.0 g and the “Pain threshold” value ([2]; Group C: carboplatin 40 mg/kg i.p. + compound 72 3 mg/kg i.v. immediately before, mean ± standard error) is reported as 213.3 ± 13.3 g. For the same compound, the “Pain threshold” value ([2]; Group C: cisplatin 3 mg/kg i.p. + compound 72 3 mg/kg i.v. immediately before, mean ± standard error) was 166.7 ± 18.5 g, the “Pain threshold” value ([2]; Group C: docetaxel 3 mg/kg i.p. + compound 72 3 mg/kg i.v. immediately before, mean ± standard error) was 276.7 ± 17.4 g and the “Pain threshold” value ([2]; Group C: vincristine 0.1 mg/kg i.p. + compound 72 3 mg/kg i.v. immediately before, mean ± standard error) was 289.2 ± 44.6 g. The “Pain threshold” value ([4]; Group C: paclitaxel 4 mg/kg i.p. + compound 72 10 mg/kg i.v. immediately before and 1 and 2 weeks after (3 times), measured 3 weeks after paclitaxel) was 441.7 ± 28.6 g.
In the case of CC(=O)O[C@H]1C(=O)[C@@]2(C)[C@H]([C@H](OC(=O)c3ccccc3)[C@]3(O)C[C@H](OC(=O)[C@H](O)[C@@H](NC(=O)c4ccccc4)c4ccccc4)C(C)=C1C3(C)C)[C@]1(OC(C)=O)CO[C@@H]1C[C@@H]2O [paclitaxel, reference compound], the “Pain threshold” value ([3]; Group B: paclitaxel 6 mg/kg i.p. 3 times alone, 2 weeks after first administration, non-treated Group A 25.8 ± 0.7) is reported as 15.4 ± 2.6 g and the “Pain threshold” value ([4]; Group B: paclitaxel 4 mg/kg i.p. alone, measured 3 weeks after, non-treated Group A 443.3 ± 32.8) is reported as 185.0 ± 19.3 g.
